Measured values from US20260007681A1, “INDOLE DERIVATIVES AS ESTROGEN RECEPTOR DEGRADERS” (REGENTS OF THE UNIVERSITY OF MICHIGAN, priority 2022, published 2026).

What was measured:
ER = ER (Homo sapiens (Human), UniProt P03372); test: In-cell western blot analysis of relative ER percentage (Compounds B1-B278); format: cell-based; settings: ER degradation, 16 hours, read-out: ICW DC50
Outline: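 Cells seeded at 40,000 or 10,000 cells/well and treated with compound (final 0.5% DMSO) for 16 h, then formaldehyde-fixed, Triton-permeabilized and co-stained for ER and GAPDH with 680/800 secondaries; LI-COR plate read. ER level expressed relative to untreated/DMSO-treated wells set at 100%.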

[1] = Cell growth assay (WST-8) (Compounds B1-B278); format: cell-based; settings: 96 h; T47D cell line; WST-8, 4 days; read-out: Cell Growth Inhibition in T47D cell line IC50
Outline: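 Cells seeded at 1500/well overnight, treated one day later with compound doses for 4 days, then 10% WST-8 added for 2.5 h at 37° C in CO2. Absorbance at 450 nm, expressed relative to vehicle control over three independent repeats.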

Sequence of ER (P03372 whole entry): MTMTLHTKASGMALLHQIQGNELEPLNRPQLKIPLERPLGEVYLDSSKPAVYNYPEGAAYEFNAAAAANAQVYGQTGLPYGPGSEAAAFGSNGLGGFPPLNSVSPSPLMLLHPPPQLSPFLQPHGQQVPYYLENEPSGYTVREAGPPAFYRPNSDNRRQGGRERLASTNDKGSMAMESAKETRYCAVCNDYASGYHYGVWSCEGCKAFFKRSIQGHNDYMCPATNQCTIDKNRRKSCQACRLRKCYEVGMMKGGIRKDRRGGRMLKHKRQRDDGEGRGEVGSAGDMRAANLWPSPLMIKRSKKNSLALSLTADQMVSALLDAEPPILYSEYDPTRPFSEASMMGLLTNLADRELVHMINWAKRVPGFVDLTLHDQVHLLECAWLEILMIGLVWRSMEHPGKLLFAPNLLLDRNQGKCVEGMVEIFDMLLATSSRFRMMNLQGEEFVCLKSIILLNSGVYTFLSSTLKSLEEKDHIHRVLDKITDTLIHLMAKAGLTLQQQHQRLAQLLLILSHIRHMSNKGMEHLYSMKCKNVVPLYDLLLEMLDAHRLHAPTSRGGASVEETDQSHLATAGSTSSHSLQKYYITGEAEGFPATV

| Structure (SMILES) | DC50 (ER) [nM] | IC50 [1] [nM] |
| --- | --- | --- |
| C[C@@H]1Cc2c([nH]c3ccccc23)[C@@H](c2c(F)cc(N3CCC4(CC3)CN(CC(=O)N3CCN5c6ccc7c(c6OC[C@H]5C3)CN(C3CCC(=O)NC3=O)C7=O)C4)cc2F)N1CC(F)F (stereo partly drawn) [Compound B177, 3-((R)-7-(2-(7-(4-((1R,3R)-2-(2,2-difluoroethyl)-3-methyl-2,3,4,9-tetrahydro-1H-pyrido[3,4-b]indol-1-yl)-3,5-difluorophenyl)-2,7-diazaspiro[3.5]nonan-2-yl)acetyl)-1-oxo-1,3,5,5a,6,7,8,9-octahydro-2H-pyrazino[1′,2′:4,5][1,4]oxazino[2,3-e]isoindol-2-yl)piperidine-2,6-dione] | 10 to 100 | < 1 |
| C[C@@H]1Cc2c([nH]c3ccccc23)[C@@H](c2cnc(N3CC4(CC(CN5CCN6c7ccc8c(c7OC[C@H]6C5)CN(C5CCC(=O)NC5=O)C8=O)C4)C3)nc2)N1CC(C)(F)F (stereo partly drawn) [Compound B178, 3-((R)-7-((2-(5-((1R,3R)-2-(2,2-difluoropropyl)-3-methyl-2,3,4,9-tetrahydro-1H-pyrido[3,4-b]indol-1-yl)pyrimidin-2-yl)-2-azaspiro[3.3]heptan-6-yl)methyl)-1-oxo-1,3,5,5a,6,7,8,9-octahydro-2H-pyrazino[1′,2′:4,5][1,4]oxazino[2,3-e]isoindol-2-yl)piperidine-2,6-dione] | 10 to 100 | 1 to 10 |
| C[C@@H]1Cc2c([nH]c3ccccc23)[C@@H](c2cnc(N3CCC4(CC3)CC(CN3CCN5c6ccc7c(c6OC[C@H]5C3)CN(C3CCC(=O)NC3=O)C7=O)C4)nc2)N1CC(F)F (stereo partly drawn) [Compound B181, 3-((R)-7-((7-(5-((1R,3R)-2-(2,2-difluoroethyl)-3-methyl-2,3,4,9-tetrahydro-1H-pyrido[3,4-b]indol-1-yl)pyrimidin-2-yl)-7-azaspiro[3.5]nonan-2-yl)methyl)-1-oxo-1,3,5,5a,6,7,8,9-octahydro-2H-pyrazino[1′,2′:4,5][1,4]oxazino[2,3-e]isoindol-2-yl)piperidine-2,6-dione] | < 10 | < 1 |
| C[C@@H]1Cc2c([nH]c3ccccc23)[C@@H](c2cnc(N3CCC(CN4CCN5c6ccc7c(c6OC[C@@H]5C4)CN(C4CCC(=O)NC4=O)C7=O)CC3)nc2)N1CC(C)(C)F (stereo partly drawn) [Compound B258, 3-((S)-7-((1-(5-((1R,3R)-2-(2-fluoro-2-methylpropyl)-3-methyl-2,3,4,9-tetrahydro-1H-pyrido[3,4-b]indol-1-yl)pyrimidin-2-yl)piperidin-4-yl)methyl)-1-oxo-1,3,5,5a,6,7,8,9-octahydro-2H-pyrazino[1′,2′:4,5][1,4]oxazino[2,3-e]isoindol-2-yl)piperidine-2,6-dione] | > 100 | < 1 |
| C[C@@H]1Cc2c([nH]c3ccccc23)[C@@H](c2cnc(N3CCC4(CC3)CC(CN3CCN5c6ccc7c(c6OC[C@H]5C3)CN(C3CCC(=O)NC3=O)C7=O)C4)nc2)N1CC1(F)CC1 (stereo partly drawn) [Compound B261, 3-((R)-7-((7-(5-((1R,3R)-2-((1-fluorocyclopropyl)methyl)-3-methyl-2,3,4,9-tetrahydro-1H-pyrido[3,4-b]indol-1-yl)pyrimidin-2-yl)-7-azaspiro[3.5]nonan-2-yl)methyl)-1-oxo-1,3,5,5a,6,7,8,9-octahydro-2H-pyrazino[1′,2′:4,5][1,4]oxazino[2,3-e]isoindol-2-yl)piperidine-2,6-dione] | 10 to 100 | 1 to 10 |
| C[C@@H]1Cc2c([nH]c3ccccc23)[C@@H](c2cnc(N3CCC4(CC3)CC(CN3CCC5(CC3)COc3c5ccc5c3CN(C3CCC(=O)NC3=O)C5=O)C4)nc2)N1CC(F)F (stereo partly drawn) [Compound B262, 3-(1′-((7-(5-((1R,3R)-2-(2,2-difluoroethyl)-3-methyl-2,3,4,9-tetrahydro-1H-pyrido[3,4-b]indol-1-yl)pyrimidin-2-yl)-7-azaspiro[3.5]nonan-2-yl)methyl)-6-oxo-6,8-dihydro-2H,7H-spiro[furo[2,3-e]isoindole-3,4′-piperidin]-7-yl)piperidine-2,6-dione] | 10 to 100 | < 1 |
| C[C@@H]1Cc2c([nH]c3ccccc23)[C@@H](c2cnc(N3CC4(CCC(CN5CCN6c7ccc8c(c7OC[C@@H]6C5)CN(C5CCC(=O)NC5=O)C8=O)CC4)C3)nc2)N1CC(F)F (stereo partly drawn) [Compound B263, 3-((S)-7-((2-(5-((1R,3R)-2-(2,2-difluoroethyl)-3-methyl-2,3,4,9-tetrahydro-1H-pyrido[3,4-b]indol-1-yl)pyrimidin-2-yl)-2-azaspiro[3.5]nonan-7-yl)methyl)-1-oxo-1,3,5,5a,6,7,8,9-octahydro-2H-pyrazino[1′,2′:4,5][1,4]oxazino[2,3-e]isoindol-2-yl)piperidine-2,6-dione] | 10 to 100 | 1 to 10 |
| C[C@@H]1Cc2c([nH]c3ccccc23)[C@@H](c2cnc(N3CCC4(CC3)CC(CN3CCN5c6ccc7c(c6OC[C@@H]5C3)CN(C3CCC(=O)NC3=O)C7=O)C4)nc2)N1CC(F)F (stereo partly drawn) [Compound B264, 3-((S)-7-((7-(5-((1R,3R)-2-(2,2-difluoroethyl)-3-methyl-2,3,4,9-tetrahydro-1H-pyrido[3,4-b]indol-1-yl)pyrimidin-2-yl)-7-azaspiro[3.5]nonan-2-yl)methyl)-1-oxo-1,3,5,5a,6,7,8,9-octahydro-2H-pyrazino[1′,2′:4,5][1,4]oxazino[2,3-e]isoindol-2-yl)piperidine-2,6-dione] | 10 to 100 | 1 to 10 |
| C[C@@H]1Cc2c([nH]c3ccccc23)[C@@H](c2c(F)cc(N3CCC4(CC3)CC(CN3CCN5c6ccc7c(c6OC[C@H]5C3)CN(C3CCC(=O)NC3=O)C7=O)CO4)cc2F)N1CC(F)(F)CO (stereo partly drawn) [Compound B266, 3-((5aR)-7-((8-(4-((1R,3R)-2-(2,2-difluoro-3-hydroxypropyl)-3-methyl-2,3,4,9-tetrahydro-1H-pyrido[3,4-b]indol-1-yl)-3,5-difluorophenyl)-1-oxa-8-azaspiro[4.5]decan-3-yl)methyl)-1-oxo-1,3,5,5a,6,7,8,9-octahydro-2H-pyrazino[1′,2′:4,5][1,4]oxazino[2,3-e]isoindol-2-yl)piperidine-2,6-dione] | 10 to 100 | 1 to 10 |

More lines, main results first:

| DC50 (ER) [nM] | Structure (SMILES) | IC50 [1] [nM] |
| --- | --- | --- |
| 10 to 100 | C[C@@H]1Cc2c([nH]c3ccccc23)[C@@H](c2cnc(N3CC4(CC(CN5CCN6c7ccc8c(c7OC[C@H]6C5)CN(C5CCC(=O)NC5=O)C8=O)C4)C3)nc2)N1CC(F)F (stereo partly drawn) [Compound B179, 3-((R)-7-((2-(5-((1R,3R)-2-(2,2-difluoroethyl)-3-methyl-2,3,4,9-tetrahydro-1H-pyrido[3,4-b]indol-1-yl)pyrimidin-2-yl)-2-azaspiro[3.3]heptan-6-yl)methyl)-1-oxo-1,3,5,5a,6,7,8,9-octahydro-2H-pyrazino[1′,2′:4,5][1,4]oxazino[2,3-e]isoindol-2-yl)piperidine-2,6-dione] | > 10 |
| < 10 | C[C@@H]1Cc2c([nH]c3ccccc23)[C@@H](c2cnc(N3CCC4(CC3)CC(CN3CCN5c6ccc7c(c6OC[C@H]5C3)CN(C3CCC(=O)NC3=O)C7=O)C4)nc2)N1CC(C)(C)F (stereo partly drawn) [Compound B180, 3-((R)-7-((7-(5-((1R,3R)-2-(2-fluoro-2-methylpropyl)-3-methyl-2,3,4,9-tetrahydro-1H-pyrido[3,4-b]indol-1-yl)pyrimidin-2-yl)-7-azaspiro[3.5]nonan-2-yl)methyl)-1-oxo-1,3,5,5a,6,7,8,9-octahydro-2H-pyrazino[1′,2′:4,5][1,4]oxazino[2,3-e]isoindol-2-yl)piperidine-2,6-dione] | 1 to 10 |
| < 10 | C[C@@H]1Cc2c([nH]c3ccccc23)[C@@H](c2cnc(N3CC4(CCC(CN5CCN6c7ccc8c(c7OC[C@H]6C5)CN(C5CCC(=O)NC5=O)C8=O)CC4)C3)nc2)N1CC(C)(C)F (stereo partly drawn) [Compound B182, 3-((R)-7-((2-(5-((1R,3R)-2-(2-fluoro-2-methylpropyl)-3-methyl-2,3,4,9-tetrahydro-1H-pyrido[3,4-b]indol-1-yl)pyrimidin-2-yl)-2-azaspiro[3.5]nonan-7-yl)methyl)-1-oxo-1,3,5,5a,6,7,8,9-octahydro-2H-pyrazino[1′,2′:4,5][1,4]oxazino[2,3-e]isoindol-2-yl)piperidine-2,6-dione] | 1 to 10 |
| < 10 | C[C@@H]1Cc2c([nH]c3ccccc23)[C@@H](c2cnc(N3CC4(CCC(CN5CCN6c7ccc8c(c7OC[C@H]6C5)CN(C5CCC(=O)NC5=O)C8=O)CC4)C3)nc2)N1CC(F)F (stereo partly drawn) [Compound B183, 3-((R)-7-((2-(5-((1R,3R)-2-(2,2-difluoroethyl)-3-methyl-2,3,4,9-tetrahydro-1H-pyrido[3,4-b]indol-1-yl)pyrimidin-2-yl)-2-azaspiro[3.5]nonan-7-yl)methyl)-1-oxo-1,3,5,5a,6,7,8,9-octahydro-2H-pyrazino[1′,2′:4,5][1,4]oxazino[2,3-e]isoindol-2-yl)piperidine-2,6-dione] | 1 to 10 |
| 10 to 100 | C[C@@H]1Cc2c([nH]c3ccccc23)[C@@H](c2cnc(N3CC4(CCC(CN5CCN6c7ccc8c(c7OC[C@H]6C5)CN(C5CCC(=O)NC5=O)C8=O)CC4)C3)nc2)N1CC1(F)CC1 (stereo partly drawn) [Compound B260, 3-((R)-7-((2-(5-((1R,3R)-2-((1-fluorocyclopropyl)methyl)-3-methyl-2,3,4,9-tetrahydro-1H-pyrido[3,4-b]indol-1-yl)pyrimidin-2-yl)-2-azaspiro[3.5]nonan-7-yl)methyl)-1-oxo-1,3,5,5a,6,7,8,9-octahydro-2H-pyrazino[1′,2′:4,5][1,4]oxazino[2,3-e]isoindol-2-yl)piperidine-2,6-dione] | 1 to 10 |
